Assay results taken from PubChem BioAssay (NCI).
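GI50 is the concentration that inhibits growth by half. The concentration for full growth arrest is given as TGI.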

What was measured:
Experiment in all cases: inhibition of tumour cell growth, NCI panel, 384-well format
MCF7 breast = system: MCF7 breast
SF-295 CNS = system: SF-295 CNS
RPMI-8226 leukemia = system: RPMI-8226 leukemia
HCC-2998 colon = system: HCC-2998 colon
CAKI-1 renal = system: CAKI-1 renal
U251 glioblastoma = system: U251 glioblastoma
HL-60(TB) leukemia = system: HL-60(TB) leukemia
HT29 colon = system: HT29 colon
NCI-H23 lung = system: NCI-H23 lung
K-562 leukemia = system: K-562 leukemia
CCRF-CEM leukemia = system: CCRF-CEM leukemia
SNB-19 CNS = system: SNB-19 CNS
MDA-MB-231 breast = system: MDA-MB-231 breast
EKVX NSCLC = system: EKVX NSCLC
NCI/ADR-RES ovarian = system: NCI/ADR-RES ovarian
OVCAR-3 ovarian = system: OVCAR-3 ovarian
OVCAR-4 ovarian = system: OVCAR-4 ovarian
786-0 renal = system: 786-0 renal
T-47D breast = system: T-47D breast
COLO 205 colon = system: COLO 205 colon
ACHN renal = system: ACHN renal
BT-549 breast = system: BT-549 breast
SN12C renal = system: SN12C renal
M14 melanoma = system: M14 melanoma
TK-10 renal = system: TK-10 renal
MDA-MB-468 breast = system: MDA-MB-468 breast
DU-145 prostate = system: DU-145 prostate
NCI-H460 NSCLC = system: NCI-H460 NSCLC
SF-268 CNS = system: SF-268 CNS

Compound: CC[C@H](C)n1cc(C)c2c(C(=O)NCc3c(C)cc(C)[nH]c3=O)cc(-c3ccc(N4CCNCC4)nc3)cc21
- GI50 (MCF7 breast): 1520 nM
- TGI (MCF7 breast): 2890 nM
- GI50 (SF-295 CNS): 1870 nM
- TGI (SF-295 CNS): 3320 nM
- GI50 (RPMI-8226 leukemia): 1390 nM
- TGI (RPMI-8226 leukemia): 2700 nM
- GI50 (HCC-2998 colon): 1600 nM
- TGI (HCC-2998 colon): 2980 nM
- GI50 (CAKI-1 renal): 1760 nM
- TGI (CAKI-1 renal): 3170 nM
- GI50 (U251 glioblastoma): 1830 nM
- TGI (U251 glioblastoma): 3250 nM
- GI50 (HL-60(TB) leukemia): 2030 nM
- TGI (HL-60(TB) leukemia): 3470 nM
- GI50 (HT29 colon): 1680 nM
- TGI (HT29 colon): 3110 nM
- GI50 (NCI-H23 lung): 2890 nM
- TGI (NCI-H23 lung): 7440 nM
- GI50 (K-562 leukemia): 1480 nM
- TGI (K-562 leukemia): 2810 nM
- GI50 (CCRF-CEM leukemia): 1530 nM
- TGI (CCRF-CEM leukemia): 2870 nM
- GI50 (SNB-19 CNS): 2110 nM
- TGI (SNB-19 CNS): 3750 nM
- GI50 (MDA-MB-231 breast): 1650 nM
- TGI (MDA-MB-231 breast): 3060 nM
- GI50 (EKVX NSCLC): 1830 nM
- TGI (EKVX NSCLC): 3490 nM
- GI50 (NCI/ADR-RES ovarian): 17700 nM
- TGI (NCI/ADR-RES ovarian): 31600 nM
- GI50 (OVCAR-3 ovarian): 2250 nM
- TGI (OVCAR-3 ovarian): 4390 nM
- GI50 (OVCAR-4 ovarian): 3580 nM
- TGI (OVCAR-4 ovarian): 10800 nM
- GI50 ([…]-0 renal): 1710 nM
- TGI (786-0 renal): 3100 nM
- GI50 (T-47D breast): 1470 nM
- TGI (T-47D breast): 2820 nM
- GI50 (COLO 205 colon): 1710 nM
- TGI (COLO 205 colon): 3100 nM
- GI50 (ACHN renal): 4230 nM
- TGI (ACHN renal): 15600 nM
- GI50 (BT-549 breast): 1670 nM
- TGI (BT-549 breast): 3050 nM
- GI50 (SN12C renal): 1780 nM
- TGI (SN12C renal): 3490 nM
- GI50 (M14 melanoma): 1750 nM
- TGI (M14 melanoma): 3140 nM
- GI50 (TK-10 renal): 1910 nM
- TGI (TK-10 renal): 3640 nM
- GI50 (MDA-MB-468 breast): 1460 nM
- TGI (MDA-MB-468 breast): 2790 nM
- GI50 (DU-145 prostate): 3830 nM
- TGI (DU-145 prostate): 12100 nM
- GI50 (NCI-H460 NSCLC): 1830 nM
- TGI (NCI-H460 NSCLC): 3240 nM
- GI50 (SF-268 CNS): 1620 nM
- TGI (SF-268 CNS): 2980 nM
